According to patent publication US7973024B2, “24-sulfoximine vitamin D3 compounds” (Cyctochroma Inc., priority 2002, dated 2011):

Columns and labels:
CYP24 [1] = biological target: T1, CYP24 (Homo sapiens, UniProt Q07973); assay: CYP24 enzyme assay (stable cell line V79-CYP24 cells); assay type: cell-based; details: [3H-1β]-1α,25(OH)2D3 20 nM, 2 hours
T1 construct: expressed in transfected cells
T1 sequence (Q07973 36-514): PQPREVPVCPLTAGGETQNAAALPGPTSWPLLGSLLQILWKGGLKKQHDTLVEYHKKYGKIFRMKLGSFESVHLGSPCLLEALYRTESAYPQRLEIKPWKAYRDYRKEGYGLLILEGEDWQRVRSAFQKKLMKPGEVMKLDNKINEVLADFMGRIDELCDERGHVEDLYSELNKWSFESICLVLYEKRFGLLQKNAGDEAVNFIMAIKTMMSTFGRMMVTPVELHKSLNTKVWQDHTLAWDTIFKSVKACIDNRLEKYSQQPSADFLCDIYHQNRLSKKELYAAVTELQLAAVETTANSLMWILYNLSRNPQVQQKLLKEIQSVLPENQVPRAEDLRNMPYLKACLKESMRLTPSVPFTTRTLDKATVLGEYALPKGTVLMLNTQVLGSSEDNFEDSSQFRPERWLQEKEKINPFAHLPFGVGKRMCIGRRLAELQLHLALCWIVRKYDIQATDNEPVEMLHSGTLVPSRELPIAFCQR
Method: 1. Preparation of Cell Suspension • On the day of the assay, washed the monolayer of V79-CYP24 cells once with 1×PBS buffer and then trypsinize for 5 min at room temperature (approx. 22° C.). Added 1×PBS. Collected cells into tube, centrifuged cells (500×g, 5 min) and resuspended in DMEM+1% BSA media.
2. Cell Plating • Added 150 μl of cell suspension to appropriately labelled wells of a 48-well plate. Incubated plate for 30 minutes at 37° C. in a humidified atmosphere containing 5% CO2 for adherence of cells to wells.
3. Compound Addition • Added 25 μl of inhibitor (10^−6 to 10^−9 M) and then after 10 min added 25 μl of substrate [^3H-1β]-1α,25(OH)2D3 (20 nM) for 2 hours at 37° C. in a humidified atmosphere containing 5% CO2. Both inhibitor and substrate were prepared in DMEM with 1% BSA media in the absence and presence of 100 μM DPPD.
4. Lipid Extraction and Counting • Added 500 μL of methanol to stop the reaction. Transferred to tube. Added 250 μl of dichloromethane and vortexed. Added 250 μl of dichloromethane and 250 μl of saturated KCL and vortexed. Centrifuged at 4000 rpm for 5 min. Triplicate 100 μl aliquots of aqueous fraction were mixed with 600 μl of scintillation fluid and the radioactivity was measured using a scintillation counter. All values were normalized for background. (iii) Results.

CYP24 [2] = biological target: T1, CYP24; assay: In vitro test of ability to inhibit specifically CYP24 (standard protocol); assay type: cell-based; details: ketoconazole as control standard
[3] = system: normal human epidermal keratinocytes (NHEK); assay: Human epidermal keratinocyte proliferation assay; assay type: cell-based; details: together with calcitriol, three days, [3H]-thymidine 18 h
Method: 1. HEK Cell Media • Supplemented KGM media with additional reagents provided in the bullet kit as per supplier's instructions. • Added calcium chloride to final concentration of 0.3 mM.
2. Calcitriol Dilutions • Stock: Calcitriol (1 mM)
3. Substrate Dilutions • Stock: substrate (0.1 mM)
1. Cell Culture • Thawed one vial of HEK cells containing at least 500 K, and divided into 5 25 cm^2 flasks with 5 ml HEK cell media. 24 h later, removed media and replenished with 5 ml fresh media. Changed media again 48 h later.
2. Preparation of Cell Suspension • On the day of the assay, washed the monolayer of HEK cells once with 1×PBS buffer (provided in reagent pack) and then trypsinized for 5 min at 37° C. Added trypsin neutralizing solution (provided in reagent pack). Collected cells into tube, centrifuged cells (500×g, 5 min) and resuspended in HEK cell media. Counted cells and adjusted density to 150,000 cells/ml. Diluted cells further 1:30 with HEK cell media.
2. Cell Plating • Added 150 μl of cell suspension to appropriately labelled wells of a 96-well plate. Incubated plate for 48 h at 37° C. in a humidified atmosphere containing 5% CO2 for adherence of cells to wells.
3. […]
4. Cell Harvesting and Counting • Added 0.2 μCi/well of [^3H]-thymidine in 20 μl of HEK cell media to each well. Incubated plates for 18 h at 37° C. in a humidified atmosphere containing 5% CO2. Aspirated media and washed with 1×PBS. Trypsinize-cells for 30 min at 37° C. in a humidified atmosphere containing 5% CO2. Harvested cells onto filter plates using Tomtec cell harvester as per manufacturer's instructions. Added 25 μl scintillation fluid per well. Measured radioactivity using a scintillation counter. All values were normalized for background.

SCC-25 cells = assay: [3H]-thymidine proliferation assay with SCC-25 cells; assay type: cell-based; details: together with calcitriol, three days, [3H]-thymidine 6 h
Method: 1. Preparation of Cell Suspension • When SCC-25 cells were 70-80% confluent, aspirated media. Washed the cells with 1×PBS. Trypsinized with trypsin-EDTA from the plate, collected cells from the tissue culture flask, centrifuged (500×g, 5 min) and resuspended in media.
2. Cell Plating. • Counted the cells and adjusted the cell density to 10,000/ml. Added 200 μl per well in a 96 well plate. Incubated plate for 24 h at 37° C. in a humidified atmosphere plus 5% CO2. Aspirated used media and replaced with 150 μl per well with media.
3. Compound Addition. • Added 25 μl of 1α,25(OH)2D3 (final concentration 10^−6M, 10^−7 M, 10^−8 M, M, 10^−10 M, 10^−11 M) into each designated well. Added 25 μl of substrate (final concentration 10^−7 M, 5×10^−8 M, 10^−8 M or 10^−9 M) into each designated well. Incubated plates for 3 days at 37° C. in a humidified atmosphere plus 5% CO2.
4. ^3H-Thymidine Incorporation. • Added ^3H-thymidine at 0.02 μCi per well and incubated at 37° C. in a humidified atmosphere plus 5% CO2 for 6 h.
(§1) 5. Plate Harvesting. • Aspirated all media and washed cells with 1×PBS. Trypsinized cells for 30 min at 37° C. in a humidified atmosphere plus 5% CO2. Harvested cells onto a 96 well filter plate (Millipore) using a Tomtec Cell Harvestor, according to manufacturers instructions.
(§2) 6. Scintillation Counting. • Added 25 μl of scintillation fluid per well. Counted the plate using a scintillation counter.

VDR = biological target: T2, VDR (Homo sapiens, UniProt P11473); assay: VDR binding assay; details: B50: displacement of 50 percent [3H]-1,25(OH)2D3 from human recombinant VDR
T2 construct: purchased Biomol
T2 sequence (P11473 1-427): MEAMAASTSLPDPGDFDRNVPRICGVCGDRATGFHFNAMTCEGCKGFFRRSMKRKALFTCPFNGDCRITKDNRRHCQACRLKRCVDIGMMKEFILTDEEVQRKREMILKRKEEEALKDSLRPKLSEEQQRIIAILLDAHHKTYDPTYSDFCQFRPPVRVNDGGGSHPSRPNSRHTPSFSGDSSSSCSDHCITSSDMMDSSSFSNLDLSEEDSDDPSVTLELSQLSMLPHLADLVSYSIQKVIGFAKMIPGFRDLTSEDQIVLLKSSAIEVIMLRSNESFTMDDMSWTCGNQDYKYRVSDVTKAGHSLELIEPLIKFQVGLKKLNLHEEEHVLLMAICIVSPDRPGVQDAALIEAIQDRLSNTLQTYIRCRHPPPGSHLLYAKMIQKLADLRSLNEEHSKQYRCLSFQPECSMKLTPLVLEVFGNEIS
Method: 1. VDR 9.4 pmol/μl (human, recombinant, Biomol).
4. TEK300 • Tris-HCI 50 mM • EDTA 1.5 mM • KCI 300 mM Adjust pH to 7.4 (25° C.)
3. Preparation of 1.25(OH)2D3 and test compounds in ethanol
1 μl stock VDR in 2.5 ml TEDK300/Gelatin solution (500 μl/tube), (keep on ice)
• Label tubes according to the following chart, each in triplicate:
• Mixed all tubes via vortex and incubated at room temperature for 1 hour. Added 10 μL of 3H-1,25(OH)2D3 Working Dilution, mixed by vortex and incubated at room temperature for 1 hour 2. Sample processing • Thirty minutes before addition, put Charcoal/Dextran Solution on ice with continuous mixing. Added […] of Charcoal/Dextran Solution to each tube, mixed well and incubated on ice for 30 minutes. Centrifuged @ 2000 rpm for 10 minutes at 4° C. 3. Counting • Pipetted 100 μL of the upper, aqueous phase to a 24 well scintillation counting plate and added 600 μL scintillation fluid per well, covered and mixed well. Counted the plate using a scintillation counter for 5 min/sample. (iv) Calculations: • The amount of 1,25(OH)2D3 to displace 50 percent [^3H]-1,25(OH)2D3 from VDR was calculated as B50 for 1,25(OH)2D3. The VDR binding of other compounds was calculated as B50 relative to a value of 1 for 1,25(OH)2D3.

MCF-7 cells = assay: [3H]-thymidine proliferation assay with MCF-7 cells; assay type: cell-based; details: together with calcitriol, three days, [3H]-thymidine 6 h
Method: 1. Preparation of Cell Suspension • When MCF-7 cells were 70-80% confluent, aspirated growth media. Washed the cells with 1×PBS. Trypsinized with trypsin-EDTA from the plate, collected cells from the tissue culture flask, centrifuged (500×g, 5 min) and resuspended in growth media.
2. Cell Plating. • Counted the cells and adjusted the cell density to 25,000/ml. Added 200 μl per well in a 96 well plate. Incubated plate for 24 h at 37° C. in a humidified atmosphere plus 5% CO2. Aspirated used media and replaced with 150 μl per well with proliferation media.
3. Substrate Addition. • Added 25 μl of 1α,25(OH)2D3 (final concentration 10^−6 M, 10^−7 M, 10^−8 M, 10^−9 M, 10^−10 M, 10^−11 M) into each designated well. Added 25 μl of substrate (final concentration 10^−7 M, 5×10^−8 M, 10^−8 M or 10^−9 M) into each designated well. Incubated plates for 3 days at 37° C. in a humidified atmosphere plus 5% CO2.
4. ^3H-Thymidine incorporation. • Added ^3H-thymidine at 0.02 μCi per well and incubated at 37° C. in a humidified atmosphere plus 5% CO2 for 6 h.
as §1, §2

| Compound | IC50 (CYP24 [1]) | selective inhibition of CYP24 (CYP24 [2]) | IC50 (VDR) | inhibition of proliferation of normal human epidermal keratinocytes (NHEK) [3] | inhibition of proliferation of SCC-25 cells (SCC-25 cells) | inhibition of proliferation of MCF-7 cells (MCF-7 cells) |
| --- | --- | --- | --- | --- | --- | --- |
| C=C1/C(=C\C=C2/CCC[C@]3(C)[C@@H]([C@@H](C)/C=C/S(=N)(=O)c4ccccc4)CC[C@@H]23)C[C@@H](O)C[C@@H]1O (stereo partly shown) [I(s)] | 580 nM | selectively inhibit | – | – | – | – |
| C=C1CC[C@H](O)C/C1=C/C=C1\CCC[C@]2(C)[C@@H]([C@H](C)CCS(=N)(=O)c3ccccc3)CC[C@@H]12 (stereo partly shown) [I(m), 24-Phenyl Sulfoximine 1-Nor Vitamin-D3] | 120 nM | selectively inhibit | > 2000 nM | – | – | – |
| CN=S(=O)(CC[C@@H](C)[C@H]1CC[C@H]2/C(=C/C=C3C[C@@H](O)C[C@H](O)C3)CCC[C@]12C)c1ccccc1 (single isomer, unassigned) [I(k), 24-Phenyl N-Methyl Sulfoximine 19-Nor-Vitamin-D3] | 300 nM | selectively inhibit | > 2000 nM | – | – | – |
| C=C1/C(=C\C=C2/CCC[C@]3(C)[C@@H]([C@H](C)/C=C/S(=N)(=O)c4ccccc4)CC[C@@H]23)C[C@@H](O)C[C@@H]1O (stereo partly shown) [I(r)] | – | selectively inhibit | – | – | – | – |

Second part, led by results:

| IC50 (CYP24 [1]) | selective inhibition of CYP24 (CYP24 [2]) | IC50 (VDR) | Compound | inhibition of proliferation of normal human epidermal keratinocytes (NHEK) [3] | inhibition of proliferation of SCC-25 cells (SCC-25 cells) | inhibition of proliferation of MCF-7 cells (MCF-7 cells) |
| --- | --- | --- | --- | --- | --- | --- |
| 20 nM | selectively inhibit | – | C=C1/C(=C\C=C2/CCC[C@]3(C)[C@@H]([C@H](C)CC4(S(=N)(=O)c5ccccc5)CC4)CC[C@@H]23)C[C@@H](O)C[C@@H]1O (single isomer, unassigned) [I(o)] | act to inhibit the proliferation | act to inhibit the proliferation | – |
| 42 nM | selectively inhibit | – | CN=S(=O)(CC[C@@H](C)[C@H]1CC[C@H]2/C(=C/C=C3C[C@@H](O)C[C@H](O)C3)CCC[C@]12C)c1ccccc1 (single isomer, unassigned) [I(l), 24-Phenyl N-Methyl Sulfoximine 19-Nor-Vitamin-D3] | – | act to inhibit the proliferation | – |
| 78 nM | selectively inhibit | – | C=C1/C(=C\C=C2/CCC[C@]3(C)[C@@H]([C@H](C)CCS(=N)(=O)c4ccc(F)cc4)CC[C@@H]23)C[C@@H](O)C[C@@H]1O (single isomer, unassigned) [I(q)] | – | – | – |
| 27 nM | selectively inhibit | – | C[C@H](CCS(=N)(=O)c1ccccc1)[C@H]1CC[C@H]2/C(=C/C=C3C[C@@H](O)C[C@H](O)C3)CCC[C@]12C (single isomer, unassigned) [I(j), 24 Phenyl Sulfoximine 19-Nor-Vitamin-D3] | – | act to inhibit the proliferation | – |
| 42 nM | selectively inhibit | – | C=C1/C(=C\C=C2/CCC[C@]3(C)[C@@H]([C@H](C)CCS(=N)(=O)c4ccc(F)cc4)CC[C@@H]23)C[C@@H](O)C[C@@H]1O (single isomer, unassigned) [I(p)] | – | – | – |
| 23 nM | selectively inhibit | – | C=C1/C(=C\C=C2/CCC[C@]3(C)[C@@H]([C@H](C)CC4(S(=N)(=O)c5ccccc5)CC4)CC[C@@H]23)C[C@@H](O)C[C@@H]1O (single isomer, unassigned) [I(n)] | act to inhibit the proliferation | act to inhibit the proliferation | act to inhibit the proliferation |
